# System: HASMC
# Experiment: Inhibition of mitogenesis in human aortic smooth muscle cells(HASMC)
# Type: functional, cell-based
row,IC50,SMILES
1,395 nM,COc1cc2ncc(O[C@H]3CC4CCC3C4)nc2cc1OC (mixture of isomers)
2,585 nM,COc1cc2ncc(N[C@H]3CC4CCC3C4)nc2cc1OC (some centres not stated)
3,61 nM,COc1cc2ncc(N[C@@H]3CC4CCC3C4)nc2cc1OC (stereo in doubt; 38)

# Biological target: T1, Platelet-derived growth factor receptor (Homo sapiens, UniProt P09619+P16234)
# Experiment: Inhibition of Platelet-derived growth factor receptor at 1 uM
# Type: protein-complex assay
row,SMILES,inhibition
1,COc1cc2ncc(SC3CCCCC3)nc2cc1OC,0%
2,COc1cc2ncc(NCC3CCCCC3)nc2cc1OC,12%
3,COc1cccc2ncc(Nc3ccccc3)nc12,11%

# More lines, now with the values ahead:
row,inhibition,SMILES
1,8%,COc1cc2ncc(Nc3ccc(Cl)cc3)nc2cc1OC
2,16%,CCC1CCC(Oc2cnc3cc(OC)c(OC)cc3n2)CC1 (configuration not stated)
3,5%,COc1cccc2nc(Nc3ccccc3)cnc12
4,0%,COc1cc2ncc(N(C)c3ccccc3)nc2cc1OC

# Biological target: T1, Platelet-derived growth factor receptor
# Experiment: Inhibition of Platelet-derived growth factor receptor
# Type: protein-complex assay
row,SMILES,IC50
1,COc1ccc2nc(Nc3ccccc3)cnc2c1,1600 nM
2,COc1cc2ncc(O[C@H]3CC4CCC3C4)nc2cc1OC (mixture of isomers),25 nM
3,Cc1cc2ncc(Nc3ccccc3)nc2cc1C,340 nM
4,COc1cc2ncc(N[C@H]3CC4CCC3C4)nc2cc1OC (some centres not stated),742 nM
5,COc1cc2ncc(Nc3cccc(Cl)c3)nc2cc1OC,4 nM
6,COc1cc2ncc(OC3CCCCC3)nc2cc1OC,65 nM
7,COc1cc2ncc(NC3CCCC3)nc2cc1OC,128 nM
8,COc1cc2ncc(Nc3ccccc3)nc2cc1OC,6 nM
9,COc1cc2cc(-c3ccsc3)cnc2cc1OC,461 nM
10,COc1cc2ncc(N[C@@H]3CC4CCC3C4)nc2cc1OC (stereo in doubt; 38),15 nM
11,COc1cc2ncc(SC3CCCC3)nc2cc1OC,226 nM
12,c1ccc(Nc2cnc3ccccc3n2)cc1,5100 nM
13,COc1cc2cc(NC3CCCCC3)cnc2cc1OC,96 nM
14,COc1cc2ncc(O[C@@H]3CC4CCC3C4)nc2cc1OC (mixture of isomers),265 nM
15,COc1cc2ncc(NC3CCCC(C)C3)nc2cc1OC (configuration not stated),41 nM

# Now from value to compound:
row,IC50,SMILES
1,42 nM,COc1ccc2ncc(Nc3ccccc3)nc2c1
2,159 nM,COc1cc2ncc(OC3CCCC3)nc2cc1OC
3,879 nM,COc1cc2ncc(N[C@@H]3CC4CCC3C4)nc2cc1OC (mixture of isomers)
4,92 nM,COc1cc2ncc(NCc3ccccc3)nc2cc1OC
5,20 nM,COc1cc2ncc(NC3CC4CCC3C4)nc2cc1OC (racemic)
6,601 nM,COc1cc2cc(OC3CCCCC3)cnc2cc1OC
7,124 nM,COc1cc2ncc(NC3CCCCC3)nc2cc1OC

# — ChEMBL document CHEMBL1136215, “Potent quinoxaline-based inhibitors of PDGF receptor tyrosine kinase activity. Part 1: SAR exploration and effective bioisosteric replacement of a phenyl substituent” (Bioorg Med Chem Lett, 2003)
